Laboratory results: patent US20230096766A1, “AMINO ACID HAVING FUNCTIONAL GROUP CAPABLE OF INTERMOLECULAR HYDROGEN BONDING, PEPTIDE COMPOUND CONTAINING SAME AND METHOD FOR PRODUCTION THEREOF” (Chugai Seiyaku Kabushiki Kaisha, priority 2018, published 2023)
*1 amine or outer side, *2 acyl side, *3 side chain or, on linkers, in order; H or OH if unused. Where a SMILES comes first, the peptide text is derived from it. Bridges are numbered along the chain shown (N, C = ends). [ ]: non-standard residue; d: D form. The star is where a group is joined. ξ: configuration not given here. X5 = O=C([C@H](CCC[C@@H]1CC(F)(F)CN1)N[*:1])[*:2]; X12 = O=C([C@H](CCCC(O)C(F)(F)F)N[*:1])[*:2]; Pro(4,4-F2)ψ(CH2) = FC1(F)CN[C@H](C*)C1; Hyp = O=C(O)[C@@H]1C[C@@H](O)CN1; NMeF = CN[C@@H](Cc1ccccc1)C(=O)O; NMeGABA = CN(CCCC(=O)[*:2])[*:1]; CH2CH(OH)CF3 = OC(C*)C(F)(F)F; NMeL = CN[C@@H](CC(C)C)C(=O)O; dNMeL = CN[C@H](CC(C)C)C(=O)O; NMeV = CN[C@H](C(=O)O)C(C)C; ξIle = CC[C@H](C)C(N)C(=O)O; NMeAbu = CC[C@H](NC)C(=O)O; Pip = O=C(O)[C@@H]1CCCCN1; NMeA = CN[C@@H](C)C(=O)O; Piperidide = C1CCN(*)CC1; dNMeA = CN[C@H](C)C(=O)O; NBuGly = CCCCNCC(=O)O; ξNMeA = CNC(C)C(=O)O; ξV = CC(C)C(N)C(=O)O; Ethyl(2-OH) = OCC*; Sar = CNCC(=O)O; tBu = CC(C)(C)*

Assay: Membrane permeability test of cyclic peptides (Caco-2, modified/improved method of WO 2018/124162)
Conditions: human
[1] = Caco-2, Caco-2 (membrane permeability), Table 10, cyclic peptides containing Ser(S-4-F2-Pyrro-Me) (G) or Nva(2-R-4-F2-Pyrro) (H)
[2] = Caco-2, Caco-2 (membrane permeability), Table 6, cyclic peptides containing Ser(1-CF3-EtOH) (C) or Hnl(7-F3-6-OH) (D)
[3] = Caco-2, Caco-2 (cm/sec), Table 36, Papp, sequences having Papp ≥ 1.0 × 10^−6 at ARC = 3

SMILES	Papp [1] [×10⁻⁶ cm/s]	also measured
CC[C@H]1C(=O)N(C)[C@@H](Cc2ccccc2)C(=O)N[C@@H](CC(C)C)C(=O)N(C)[C@@H](CC(C)C)C(=O)N(C)[C@@H](CC(C)C)C(=O)N[C@@H](COC[C@@H]2CC(F)(F)CN2)C(=O)N(C)CC(=O)N(C)[C@@H](CC(C)C)C(=O)N[C@H](C(=O)N2CCCCC2)CC(=O)N(C)[C@@H](C)C(=O)N[C@@H](CC(C)C)C(=O)N1C [Compound G10] ([NMeA]L[NMeAbu][NMeF]L[NMeL][NMeL]S(Pro(4,4-F2)ψ(CH2))[Sar][NMeL]D-Piperidide; lactam N-11)	1.1	
CCCCN1CC(=O)N(C)[C@@H](Cc2ccccc2)C(=O)N(C)[C@@H](CC(C)C)C(=O)N[C@@H](CC(C)C)C(=O)N(C)[C@@H](CC(C)C)C(=O)N[C@H](C(=O)N2CCCCC2)CC(=O)N(C)CC(=O)N(C)[C@@H](CC)C(=O)N[C@@H](C(C)C)C(=O)N(C)[C@@H](CC)C(=O)N[C@@H](COC[C@@H]2CC(F)(F)CN2)C1=O [Compound G11] ([Sar][NMeAbu]V[NMeAbu]S(Pro(4,4-F2)ψ(CH2))[NBuGly][NMeF][NMeL]L[NMeL]D-Piperidide; lactam N-11)	1.5	
CC[C@H]1C(=O)N[C@@H](COC(C)(C)C)C(=O)N(C)[C@@H](CC(C)C)C(=O)N[C@@H](COC[C@@H]2CC(F)(F)CN2)C(=O)N(C)[C@@H](CC(C)C)C(=O)N(C)[C@@H](CC(C)C)C(=O)N[C@H](C(=O)N2CCCCC2)CC(=O)N(C)CCCC(=O)N(C)[C@@H](CC(C)C)C(=O)N[C@@H](C(C)C)C(=O)N(C)[C@@H](Cc2ccccc2)C(=O)N1C [Compound G09] ([NMeGABA][NMeL]V[NMeF][NMeAbu]S(tBu)[NMeL]S(Pro(4,4-F2)ψ(CH2))[NMeL][NMeL]D-Piperidide; lactam N-11)	1.2	
CC[C@H](C)[C@@H]1NC(=O)[C@H](CC(C)C)N(C)C(=O)[C@H](COC(C)(C)C)NC(=O)[C@H](Cc2ccccc2)N(C)C(=O)[C@H](Cc2ccccc2)N(C)C(=O)[C@H](CCCC(O)C(F)(F)F)NC(=O)[C@H](CC)N(C)C(=O)CCCN(C)C(=O)C[C@@H](C(=O)N2CCCCC2)NC(=O)[C@H](CC(C)C)N(C)C(=O)[C@H](CC(C)C)N(C)C1=O (stereo partly drawn) [Compound D13] ([NMeGABA][NMeAbu][X12][NMeF][NMeF]S(tBu)[NMeL]I[NMeL][NMeL]D-Piperidide; lactam N-11)		Papp [2]: 0.14 ×10⁻⁶ cm/s
CCCCN1CC(=O)N(C)[C@@H](C)C(=O)N[C@@H](CCC[C@@H]2CC(F)(F)CN2)C(=O)N(C)[C@@H](Cc2ccccc2)C(=O)N(C)[C@@H](CC)C(=O)N[C@H](C(=O)N2CCCCC2)CC(=O)N[C@H](CC(C)C)C(=O)N(C)[C@@H](CC(C)C)C(=O)N[C@@H](C(C)C)C(=O)N(C)[C@@H](CC(C)C)C(=O)N[C@@H]([C@@H](C)O)C1=O [Compound H02] ([dL][NMeL]V[NMeL]T[NBuGly][NMeA][X5][NMeF][NMeAbu]D-Piperidide; lactam N-11)	0.14	
CC(C)C[C@H]1C(=O)N[C@@H](COC(C)(C)C)C(=O)N(C)[C@@H](Cc2ccccc2)C(=O)N(C)[C@@H](CC(C)C)C(=O)N[C@H](C(=O)N2CCCCC2)CC(=O)N[C@H](C(C)C)C(=O)N(C)[C@@H](Cc2ccccc2)C(=O)N[C@@H](COCC(O)C(F)(F)F)C(=O)N(C)[C@@H](CC(C)C)C(=O)NC(C(C)C)C(=O)N(C)CC(=O)N1C (stereo partly drawn) [Compound C11] ([dV][NMeF]S(CH2CH(OH)CF3)[NMeL][ξV][Sar][NMeL]S(tBu)[NMeF][NMeL]D-Piperidide; lactam N-11)		Papp [2]: 0.23 ×10⁻⁶ cm/s
CCCCN1CC(=O)N(C)[C@@H](CC(C)C)C(=O)N[C@H](C(=O)N2CCCCC2)CC(=O)N(C)C(C)C(=O)N[C@@H](COC[C@@H]2CC(F)(F)CN2)C(=O)N(C)[C@@H](CC(C)C)C(=O)N(C)[C@@H](CC)C(=O)N[C@@H](C(C)C)C(=O)N(C)[C@@H](Cc2ccccc2)C(=O)N(C)[C@@H](CC(C)C)C(=O)N[C@@H]([C@@H](C)O)C1=O (stereo partly drawn) [Compound G05] ([ξNMeA]S(Pro(4,4-F2)ψ(CH2))[NMeL][NMeAbu]V[NMeF][NMeL]T[NBuGly][NMeL]D-Piperidide; lactam N-11)	3.2	
CC(C)C[C@H]1C(=O)N[C@@H](C(C)C)C(=O)N(C)[C@@H](Cc2ccccc2)C(=O)N(C)[C@@H](Cc2ccccc2)C(=O)N[C@@H](COC(C)(C)C)C(=O)N(C)[C@@H](CC(C)C)C(=O)N[C@@H](CCCC(O)C(F)(F)F)C(=O)N(C)[C@@H](CC(C)C)C(=O)N(C)[C@@H](CC(C)C)C(=O)N[C@H](C(=O)N2CCCCC2)CC(=O)N(C)CCCC(=O)N1C (stereo partly drawn) [Compound D12] ([NMeGABA][NMeL]V[NMeF][NMeF]S(tBu)[NMeL][X12][NMeL][NMeL]D-Piperidide; lactam N-11)		Papp [2]: 0.13 ×10⁻⁶ cm/s
CCCCN1CC(=O)N(C)[C@@H](Cc2ccccc2)C(=O)N(C)[C@@H](CC(C)C)C(=O)N[C@@H](C(C)C)C(=O)N(C)[C@@H](CC(C)C)C(=O)N[C@H](C(=O)N2CCCCC2)CC(=O)N(C)CC(=O)N(C)[C@@H](CC(C)C)C(=O)N[C@@H](COC[C@@H]2CC(F)(F)CN2)C(=O)N(C)[C@@H](CC(C)C)C(=O)N[C@@H]([C@@H](C)O)C1=O [Compound G06] ([Sar][NMeL]S(Pro(4,4-F2)ψ(CH2))[NMeL]T[NBuGly][NMeF][NMeL]V[NMeL]D-Piperidide; lactam N-11)	1.8	
CCCCN1CC(=O)N(C)[C@@H](CC(C)C)C(=O)N[C@H](C(=O)N2CCCCC2)CC(=O)N(C)[C@@H](C)C(=O)N[C@@H](CCC[C@@H]2CC(F)(F)CN2)C(=O)N(C)[C@@H](CC(C)C)C(=O)N(C)[C@@H](C)C(=O)N[C@@H](C(C)C)C(=O)N(C)[C@@H](Cc2ccccc2)C(=O)N(C)[C@@H](CC(C)C)C(=O)N[C@@H]([C@@H](C)O)C1=O [Compound H05] ([NMeA][X5][NMeL][NMeA]V[NMeF][NMeL]T[NBuGly][NMeL]D-Piperidide; lactam N-11)	1.2	
CCCCN1CC(=O)N(C)[C@@H](CC(C)C)C(=O)N[C@@H](COC(C)(C)C)C(=O)N(C)[C@@H](Cc2ccccc2)C(=O)N(C)[C@@H](C)C(=O)N[C@H](C(=O)N2CCCCC2)CC(=O)N[C@H](C)C(=O)N(C)[C@@H](CC)C(=O)N[C@@H](C(C)C)C(=O)N(C)[C@@H](CC(C)C)C(=O)N[C@@H](CCC[C@@H]2CC(F)(F)CN2)C1=O [Compound H08] ([dA][NMeAbu]V[NMeL][X5][NBuGly][NMeL]S(tBu)[NMeF][NMeA]D-Piperidide; lactam N-11)	0.92	
CC[C@H](C)[C@@H]1NC(=O)[C@H](Cc2ccccc2)N(C)C(=O)CN(C)C(=O)C[C@@H](C(=O)N2CCCCC2)NC(=O)[C@H](C(C)C)N(C)C(=O)[C@H](COC(C)(C)C)NC(=O)[C@H](CC(C)C)N(C)C(=O)[C@H](Cc2ccccc2)N(C)C(=O)CN(C)C(=O)[C@H]([C@@H](C)O)NC(=O)[C@H](Cc2ccccc2)N(C)C1=O [pd205] ([Sar][NMeF]I[NMeF]T[Sar][NMeF][NMeL]S(tBu)[NMeV]D-Piperidide; lactam N-11)		Papp [3]: 1.8 ×10⁻⁶ cm/s
CCCCN1CC(=O)N(C)[C@@H](CC)C(=O)N[C@@H](COC[C@@H]2CC(F)(F)CN2)C(=O)N(C)[C@@H](Cc2ccccc2)C(=O)N(C)[C@@H](CC)C(=O)N[C@H](C(=O)N2CCCCC2)CC(=O)N[C@H](CC(C)C)C(=O)N(C)[C@@H](CC(C)C)C(=O)N[C@@H](C(C)C)C(=O)N(C)[C@@H](CC(C)C)C(=O)N[C@@H]([C@@H](C)O)C1=O [Compound G02] ([dL][NMeL]V[NMeL]T[NBuGly][NMeAbu]S(Pro(4,4-F2)ψ(CH2))[NMeF][NMeAbu]D-Piperidide; lactam N-11)	0.4	
CCCCN1CC(=O)N(C)[C@@H](Cc2ccccc2)C(=O)N(C)[C@@H](CC(C)C)C(=O)N[C@@H](COC[C@@H]2CC(F)(F)CN2)C(=O)N(C)[C@@H](CC(C)C)C(=O)N[C@H](C(=O)N2CCCCC2)CC(=O)N(C)CC(=O)N(C)[C@@H](CC(C)C)C(=O)NC([C@@H](C)CC)C(=O)N(C)[C@@H](CC(C)C)C(=O)N[C@@H]([C@@H](C)O)C1=O (stereo partly drawn) [Compound G07] ([Sar][NMeL][ξIle][NMeL]T[NBuGly][NMeF][NMeL]S(Pro(4,4-F2)ψ(CH2))[NMeL]D-Piperidide; lactam N-11)	0.57	
CC(C)C[C@H]1C(=O)N[C@@H](C(C)C)C(=O)N(C)[C@@H](Cc2ccccc2)C(=O)N(C)[C@@H](C)C(=O)N[C@@H](COC(C)(C)C)C(=O)N(C)[C@@H](CC(C)C)C(=O)N[C@@H](CCC[C@@H]2CC(F)(F)CN2)C(=O)N(C)[C@@H](CC(C)C)C(=O)N(C)[C@@H](CC(C)C)C(=O)N[C@H](C(=O)N2CCCCC2)CC(=O)N(C)CCCC(=O)N1C [Compound H09] ([NMeGABA][NMeL]V[NMeF][NMeA]S(tBu)[NMeL][X5][NMeL][NMeL]D-Piperidide; lactam N-11)	0.52	
CC(C)C[C@@H]1NC(=O)[C@@H]2CCCCN2C(=O)[C@H](Cc2ccccc2)NC(=O)[C@H](C(C)C)N(C)C(=O)[C@H](CC(C)C)N(C)C(=O)[C@H]([C@@H](C)O)NC(=O)[C@H](CC(C)C)N(C)C(=O)[C@@H]2C[C@@H](OCCO)CN2C(=O)[C@H](CC(C)C)N(C)C(=O)[C@@H](CC(C)C)N(C)C(=O)C[C@@H](C(=O)N2CCCCC2)NC1=O [AP236] ([dNMeL][NMeL][Hyp](Ethyl(2-OH))[NMeL]T[NMeL][NMeV]F[Pip]LD-Piperidide; lactam N-11)		Papp (Caco-2, Caco-2 (cm/sec), membrane permeability of cyclic peptides, Caco-2): 3.8 ×10⁻⁶ cm/s
CC[C@H](C)[C@@H]1NC(=O)[C@H](CC(C)C)N(C)C(=O)[C@H](C)N(C)C(=O)[C@H]([C@@H](C)O)NC(=O)[C@H](Cc2ccccc2)N(C)C(=O)[C@H](C)N(C)C(=O)[C@@H](C)N(C)C(=O)C[C@@H](C(=O)N(C)[C@@H](Cc2ccccc2)C(=O)N(C)[C@@H](Cc2ccccc2)C(=O)N[C@@H](C)C(=O)N2CCCCC2)NC(=O)[C@H](C(C)C)N(C)C(=O)[C@H](CC(C)C)N(C)C1=O [pd201] ([dNMeA][NMeA][NMeF]T[NMeA][NMeL]I[NMeL][NMeV]D[NMeF][NMeF]A-Piperidide; lactam N-10)		Papp [3]: 2.3 ×10⁻⁶ cm/s
